# Read-outs that look alike come from different tables or passages of the source.
# Legend:
# [1] = biological target: B-Raf (V600E) (SEQ. ID NO: 4) kinase (Homo sapiens (Human), UniProt P15056, V600E); test: Biochemical Assay for B-Raf (V600E) (1); conditions: Table J, BRAF V600E
# In short: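 Serially diluted compounds tested against 0.03 nM enzyme with 30.1 nM MEK substrate and 1 mM ATP (Tris pH 7.5, 15 mM MgCl2), ATP use coupled to NADH loss via PK/LDH. A340 monitored continuously 6 h, 30 °C; IC50 fitted (four-parameter) from the 3–4 h rate versus no-compound and known-inhibitor controls.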
# A375 cells = test: A375 Cell Proliferation Assay (1); format: cell-based; conditions: Homo sapiens, A-375
# In short: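 Resazurin fluorescence (excitation 540 nm, emission 600 nm, after a further 5-6 h) gave IC50s from triplicate compound dilution series.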
# WM3928 cells = test: WM3928 Cell Proliferation Assay (1); format: cell-based
# In short: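 IC50 was derived from resazurin fluorescence (ex 540, em 600 nm) after a 6–7 h dye incubation. Before that, cells had 67–72 h of compound exposure at 37 °C, 5% CO2.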
# H2405 cells = test: H2405 Cell Proliferation Assay (1); format: cell-based; conditions: Homo sapiens, NCI-H2405
# In short: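 Viability was read by resazurin reduction (ex 540 nm, em 600 nm; 5-6 h with 40 μL of 440 μM stock) after 67-72 h compound exposure at 37 °C.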
# [2] = assay version (1), read-out: BRAF VE (1) IC50
# [3] = biochemical assay (1), read-out: BRAF VE (1)
# Sequence of B-Raf (V600E) (SEQ. ID NO: 4) kinase (P15056 416-766 V600E): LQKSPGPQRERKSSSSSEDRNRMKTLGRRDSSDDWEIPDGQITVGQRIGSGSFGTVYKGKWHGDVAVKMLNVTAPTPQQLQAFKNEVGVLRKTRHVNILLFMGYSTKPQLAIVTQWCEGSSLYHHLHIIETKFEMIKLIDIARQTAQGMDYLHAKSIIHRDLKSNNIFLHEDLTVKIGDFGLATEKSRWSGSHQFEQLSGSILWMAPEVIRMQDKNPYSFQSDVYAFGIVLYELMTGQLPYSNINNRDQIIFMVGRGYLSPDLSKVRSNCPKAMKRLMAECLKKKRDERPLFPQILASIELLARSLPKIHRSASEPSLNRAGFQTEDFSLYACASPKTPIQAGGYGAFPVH
"IC50 [1, 2] [nM]",IC50 (A375 cells) [nM],IC50 (H2405 cells) [nM],"IC50 [1, 3] [nM]",Compound,IC50 (WM3928 cells) [nM]
≤ 100,≤ 100,≤ 100,,CNC(=O)c1cc(-c2cncc(-c3cc(NC(=O)c4ccnc(C(C)(C)C#N)c4)ccc3C)n2)ccn1 [Example 86],≤ 100
≤ 100,≤ 100,,,COCC(=O)Nc1cc(-c2nccc(-c3cc(NC(=O)c4ccnc(C(C)(C)C#N)c4)ccc3C)n2)ccn1 [Example 88],≤ 100
≤ 100,500 to 1000,,,Cc1cc(F)c(NC(=O)c2ccnc(C(F)(F)F)c2)cc1-c1ccnc(-c2ccnc(NC=O)c2)c1 [Example 35],
,1000 to 10000,1000 to 10000,100 to 500,Cc1ccc(NC(=O)c2ccnc(C(C)(C)F)c2)cc1-c1cc(-c2ccnc3[nH]ncc23)cnn1 [Example 400],1000 to 10000
≤ 100,≤ 100,≤ 100,,Cc1ccc(NC(=O)c2ccnc(C(C)(C)C#N)c2)cc1-c1cccc(-c2cc(NC(=O)C3CC3)ncn2)c1 [Example 77],≤ 100
,≤ 100,100 to 500,≤ 100,CNC(=O)c1cc(-c2cncc(-c3cc(NC(=O)c4ccnc(C(C)(C)F)c4)ccc3C)c2)ncn1 [Example 379],≤ 100
≤ 100,100 to 500,≤ 100,,"CC(=O)Nc1cc(-c2cc(-c3cc(NC(=O)c4ccnc(C(F)(F)F)c4)ccc3C)nc(N(C)C)n2)ccn1 [Example 41, N-(3-(6-(2-acetamidopyridin-4-yl)-2-(dimethylamino)pyrimidin-4-yl)-4-methylphenyl)-2-(trifluoromethyl)isonicotinamide]",≤ 100
,1000 to 10000,1000 to 10000,100 to 500,CNC(=O)c1cc(-c2cncc(-c3cc(NC(=O)c4cnn(CC(F)(F)F)c4)ccc3C)c2)ncn1 [Example 382],
≤ 100,500 to 1000,,,Cc1cc(-c2cc(-c3cc(NC(=O)c4ccnc(C(C)(C)C#N)c4)ccc3C)ccn2)ccn1 [Example 49],
≤ 100,100 to 500,≤ 100,,CNC(=O)c1cc(-c2cc(-c3cc(NC(=O)c4cccc(C(F)(F)F)c4)cnc3C)ccn2)ccn1 [Example 52],100 to 500
≤ 100,≤ 100,,,CC(=O)Nc1cc(-c2cc(-c3cc(NC(=O)c4cccc(C(F)(F)F)c4)cnc3C)ccn2)ccn1 [Example 37],
,≤ 100,≤ 100,≤ 100,Cc1ccc(NC(=O)c2ccnc(C3CC3)c2)cc1-c1cncc(-c2cc(NC(=O)C3CC3)ncn2)c1 [Example 396],≤ 100
≤ 100,100 to 500,,,CC(=O)Nc1cc(-c2cc(-c3cc(NC(=O)c4ccnc(C(F)(F)F)c4)ccc3C)nc(C)n2)ccn1 [Example 83],
≤ 100,1000 to 10000,,,CC(=O)Nc1cc(-c2cc(-c3cc(NC(=O)c4ccnc(C)c4)ccc3C)ncn2)ccn1 [Example 59],
,1000 to 10000,1000 to 10000,100 to 500,Cc1ccc(NC(=O)c2cnn(CC(F)(F)F)c2)cc1-c1cncc(-c2ccnc(C(N)=O)c2)c1 [Example 381],
≤ 100,500 to 1000,,,CC(=O)Nc1cc(-c2cc(-c3cc(NC(=O)c4ccnc(C(F)(F)F)c4)ccc3F)cc(C)n2)ccn1 [Example 65],
≤ 100,100 to 500,,,CC(=O)Nc1cc(-c2ccnc(-c3cc(NC(=O)c4ccnc(C(F)(F)F)c4)ccc3C)n2)ccn1 [Example 92],
≤ 100,≤ 100,,,CC(=O)Nc1cc(-c2cc(-c3cc(NC(=O)c4ccnc(C(C)(C)C#N)c4)c(F)cc3C)ccn2)ccn1 [Example 75],
,1000 to 10000,1000 to 10000,≤ 100,Cc1ncc(NC(=O)c2ccnc(C(C)(C)C#N)c2)cc1-c1cccc(-c2ncnn3cccc23)c1 [Example 385],1000 to 10000
≤ 100,100 to 500,,,Cc1ccc(NC(=O)c2ccnc(C(C)(C)C#N)c2)cc1-c1ccnc(-c2ccnc(NC(=O)CC#N)c2)c1 [Example 63],≤ 100
≤ 100,≤ 100,,,Cc1cc(F)c(NC(=O)c2ccnc(C(C)(C)C#N)c2)cc1-c1ccnc(-c2ccnc(NC(=O)C3CC3)c2)c1 [Example 76],
≤ 100,1000 to 10000,,,Cc1cc(-c2cc(NC(=O)c3ccnc(C(F)(F)F)c3)ccc2F)cc(-c2ccnc(NC(=O)C3CC3)c2)n1 [Example 72],100 to 500
≤ 100,500 to 1000,,,Cc1ccc(NC(=O)c2ccnc(C(C)(C)C#N)c2)cc1-c1cncc(-c2ccnc3c2CC(=O)N3)n1 [Example 43],≤ 100
≤ 100,500 to 1000,,,CC(=O)Nc1cc(-c2cncc(-c3cc(C(=O)Nc4cnn(C(C)C)c4)ccc3C)n2)ccn1 [Example 87],

"IC50 [1, 2] [nM]",IC50 (A375 cells) [nM],IC50 (H2405 cells) [nM],"IC50 [1, 3] [nM]",Compound,IC50 (WM3928 cells) [nM]
≤ 100,≤ 100,,,CNC(=O)c1cc(-c2nccc(-c3cc(NC(=O)c4ccnc(C(C)(C)C#N)c4)ccc3C)n2)ccn1 [Example 78],≤ 100
,1000 to 10000,1000 to 10000,1000 to 10000,CNC(=O)c1cc(-c2cncc(-c3cc(NC(=O)Cn4cc(C(C)C)nn4)ccc3C)c2)ncn1 [Example 383],
≤ 100,1000 to 10000,,,CNC(=O)c1cc(-c2cc(-c3cc(NC(=O)c4ccnc(C)c4)ccc3C)ccn2)ccn1 [Example 40],
,1000 to 10000,1000 to 10000,100 to 500,Cc1ccc(NC(=O)c2cn(C(C)C)nc2C)cc1-c1cc(-c2ccnc(NC(=O)C3CC3)c2)cnn1 [Example 373],
≤ 100,100 to 500,,,Cc1ncc(NC(=O)c2ccnc(C(F)(F)F)c2)cc1-c1cccc(-c2ccnc(NC(=O)C3CC3)c2)c1 [Example 70],
≤ 100,500 to 1000,,,"Cc1ccc(NC(=O)c2ccnc(C(F)(F)F)c2)cc1-c1ccnc(-c2ccnc(NC(=O)CC#N)c2)c1 [Example 39, N-(3-(2′-(2-cyanoacetamido)-[2,4′-bipyridin]-4-yl)-4-methylphenyl)-2-(trifluoromethyl)isonicotinamide]",
≤ 100,1000 to 10000,,,Cc1ccc(NC(=O)c2ccnc(C(F)(F)F)c2)cc1-c1ccnc(-c2ccnc(NC=O)c2)c1 [Example 46],
≤ 100,1000 to 10000,,,CNC(=O)c1cc(-c2cccc(-c3cc(NC(=O)c4ccnc(C(F)(F)F)c4)cnc3C)c2)ccn1 [Example 73],
≤ 100,1000 to 10000,,,CNC(=O)c1cc(-c2cncc(-c3cc(NC(=O)c4ccnc(C(F)(F)F)c4)ccc3C)n2)ccn1 [Example 47],
≤ 100,≤ 100,,,CC(=O)Nc1cc(-c2cccc(-c3cc(NC(=O)c4ccnc(C(C)(C)C#N)c4)ccc3C)c2)ncn1 [Example 79],
≤ 100,1000 to 10000,,,Cc1ccc(NC(=O)c2ccnc(C(F)(F)F)c2)cc1-c1cncc(-c2ccnc(N)c2)n1 [Example 90],
≤ 100,100 to 500,,,CC(=O)Nc1cc(-c2cc(-c3cc(NC(=O)c4ccnc(C(F)(F)F)c4)ccc3C)ncn2)ccn1 [Example 84],
≤ 100,100 to 500,,,CC(=O)Nc1cc(-c2cc(-c3cc(NC(=O)c4ccnc(C(C)(C)C#N)c4)ccc3C)nc(C)n2)ccn1 [Example 89],≤ 100
≤ 100,≤ 100,,,COCC(=O)Nc1cc(-c2cc(-c3cc(NC(=O)c4ccnc(C(C)(C)C#N)c4)ccc3C)ccn2)ccn1 [Example 61],
≤ 100,100 to 500,,,COCC(=O)Nc1cc(-c2cccc(-c3cc(NC(=O)c4ccnc(C(F)(F)F)c4)ccc3C)c2)ccn1 [Example 57],
≤ 100,1000 to 10000,1000 to 10000,,CNC(=O)c1cc(-c2cncc(-c3cc(C(=O)Nc4cnn(C(C)C)c4)ccc3C)n2)ccn1 [Example 81],
≤ 100,100 to 500,,,CC(=O)Nc1cc(-c2cc(-c3cc(NC(=O)c4ccnc(C(F)(F)F)c4)c(F)cc3C)ccn2)ccn1 [Example 2],
≤ 100,500 to 1000,,,CC(=O)Nc1cc(-c2cc(-c3cc(NC(=O)c4cccc(C)c4)ccc3C)ccn2)ccn1 [Example 32],
≤ 100,100 to 500,,,Cc1ccc(NC(=O)c2ccnc(C(F)(F)F)c2)cc1-c1cccc(-c2ccnc(NC(=O)CC#N)c2)c1 [Example 62],
≤ 100,100 to 500,,,CC(=O)Nc1cc(-c2cccc(-c3cc(NC(=O)c4ccnc(C(F)(F)F)c4)cnc3C)c2)ccn1 [Example 64],
≤ 100,≤ 100,,,"CC(=O)Nc1cc(-c2cc(-c3cc(NC(=O)c4ccnc(C(F)(F)F)c4)ccc3C)cc(OCCO)n2)ccn1 [Example 1, N-(3-(2′-acetamido-6-(2-hydroxyethoxy)-[2,4′-bipyridin]-4-yl)-4-methylphenyl)-2-(trifluoromethyl)isonicotinamide]",
,1000 to 10000,1000 to 10000,1000 to 10000,CNC(=O)c1cc(-c2cnnc(-c3cc(NC(=O)CCC4(F)CC4)cnc3C)c2)ccn1 [Example 374],
≤ 100,1000 to 10000,,,CNC(=O)c1cc(-c2cc(-c3cc(NC(=O)c4ccnc(C)c4)ccc3C)ncn2)ccn1 [Example 60],
≤ 100,500 to 1000,,,CC(=O)Nc1cc(-c2cc(-c3cc(NC(=O)c4ccnc(C(F)(F)F)c4)cnc3C)ccn2)ccn1 [Example 36],

# Reference: patent US12319655B2, “RAF kinase inhibitors and methods of use thereof” (Deciphera Pharmaceuticals, LLC, priority 2021, dated 2025)
